Data published in ChEMBL document CHEMBL5727303, “Substituted perhydropyrrolo[3,4-c]pyrrole derivatives and the use of same” (2019).

Legend:
[1] = biological target: Potassium channel subfamily K member 3 (Homo sapiens, UniProt O14649); test: (§1) In Vitro Electrophysiological Assay: In Vitro Electrophysiological Analysis of the Human TASK-1 and TASK-3 Channels Via Two-Electrode Voltage Clamp Technique in Xenopus laevis OocytesSubsequently, the oocytes were injected with 0.5-5 ng of a cRNA solution coding for TASK-1 or TASK-3. For the electrophysiological analysis of the channel proteins expressed in the oocytes, the two-electrode voltage clamp technique was used. The measurements were conducted at room temperature (21-22° C.) using a Turbo TEC 10CD amplifier (NPI), recorded at 2 kHz and filtered with 0.4 kHz. Substance administration was performed using a gravitation-driven perfusion system. Here, the oocyte is located in a measuring chamber and exposed to the solution stream of 10 ml/min. The level in the measuring chamber is monitored and regulated by sucking off the solution using a peristaltic pump.; format: cell-based
[2] = biological target: Potassium channel subfamily K member 9 (Homo sapiens, UniProt Q9NPC2); test: as §1; format: cell-based
Potassium channel subfamily K member 9, sequence (Q9NPC2 whole entry): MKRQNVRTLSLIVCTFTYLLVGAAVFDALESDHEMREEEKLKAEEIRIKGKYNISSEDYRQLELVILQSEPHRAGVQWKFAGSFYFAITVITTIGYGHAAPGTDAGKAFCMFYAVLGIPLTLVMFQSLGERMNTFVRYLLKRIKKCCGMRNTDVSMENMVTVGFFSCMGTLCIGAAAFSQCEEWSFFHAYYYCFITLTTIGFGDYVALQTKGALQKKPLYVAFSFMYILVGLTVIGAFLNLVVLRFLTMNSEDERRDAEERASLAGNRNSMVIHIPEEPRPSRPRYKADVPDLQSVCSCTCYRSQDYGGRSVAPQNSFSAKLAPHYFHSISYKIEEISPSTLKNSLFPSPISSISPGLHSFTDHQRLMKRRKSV

Potassium channel subfamily K member 3, sequence (O14649 whole entry, the tested form may be a part): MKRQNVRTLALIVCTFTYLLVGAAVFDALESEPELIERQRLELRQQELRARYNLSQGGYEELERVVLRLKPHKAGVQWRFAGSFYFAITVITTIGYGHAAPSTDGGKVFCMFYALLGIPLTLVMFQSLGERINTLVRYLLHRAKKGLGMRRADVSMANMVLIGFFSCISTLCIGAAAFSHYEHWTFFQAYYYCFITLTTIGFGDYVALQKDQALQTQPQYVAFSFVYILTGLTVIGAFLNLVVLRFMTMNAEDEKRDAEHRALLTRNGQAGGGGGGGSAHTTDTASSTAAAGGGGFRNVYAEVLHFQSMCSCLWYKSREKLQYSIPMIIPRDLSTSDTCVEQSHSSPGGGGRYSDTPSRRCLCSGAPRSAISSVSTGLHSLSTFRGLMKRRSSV

IC50 [1]: 740 nM
IC50 [2]: 3700 nM
Compound: CCOc1ccccc1NC(=O)N1CC2CN(Cc3c(-c4ccc(Br)cc4)nc4ccccn34)CC2C1 (configuration not stated)
